Experimental data published in patent US20250099405A1, “COMPOSITIONS, METHODS, AND DEVELOPMENT OF ARID4B INHIBITORS” (University of Kentucky Research Foundation, priority 2022, published 2025).

Experiments:
MCF7 xenograft = MCF7 xenograft model; type: in vivo, SCID mice; conditions: 25 mg/kg once every two days for 24 days
Protocol: The effects of RWR18 on tumor growth was determined using MCF7 xenograft model. When tumor in SCID mice reached 150-200 mm^3, mice were randomized to receive vehicle or RWR18 (25 mg/kg) once every two days for 24 days. […] Bar, 5 mm.
The effects of RWR18 on tumor growth was determined using MCF7 xenograft model. When tumor in SCID mice reaches 150-200 mm^3, mice were randomized to receive vehicle or RWR18 (25 mg/kg) once every two days for 24 days.
The effects of RWR18 on tumor growth was determined using MCF7 xenograft model. When tumor in SCID mice reached 150-200 mm^3, mice were randomized to receive vehicle or RWR18 (25 mg/kg) once every two days for 24 days.

HA-ARID4BAC = biological target: T1, HA-ARID4BAC (Homo sapiens, UniProt Q4LE39, DEL571-624); experiment: CETSA in HEK-293T cells expressing the chromodomain deletion mutant; type: cell-based; conditions: 10 μM, 2 h
T1 construct: transfected with vector, full-length ARID4B or ARID4B deletion mutants; expressed in transfected cells; host or cells: HEK-293T
T1 sequence (Q4LE39 with tags, fused parts or gaps DEL571-624): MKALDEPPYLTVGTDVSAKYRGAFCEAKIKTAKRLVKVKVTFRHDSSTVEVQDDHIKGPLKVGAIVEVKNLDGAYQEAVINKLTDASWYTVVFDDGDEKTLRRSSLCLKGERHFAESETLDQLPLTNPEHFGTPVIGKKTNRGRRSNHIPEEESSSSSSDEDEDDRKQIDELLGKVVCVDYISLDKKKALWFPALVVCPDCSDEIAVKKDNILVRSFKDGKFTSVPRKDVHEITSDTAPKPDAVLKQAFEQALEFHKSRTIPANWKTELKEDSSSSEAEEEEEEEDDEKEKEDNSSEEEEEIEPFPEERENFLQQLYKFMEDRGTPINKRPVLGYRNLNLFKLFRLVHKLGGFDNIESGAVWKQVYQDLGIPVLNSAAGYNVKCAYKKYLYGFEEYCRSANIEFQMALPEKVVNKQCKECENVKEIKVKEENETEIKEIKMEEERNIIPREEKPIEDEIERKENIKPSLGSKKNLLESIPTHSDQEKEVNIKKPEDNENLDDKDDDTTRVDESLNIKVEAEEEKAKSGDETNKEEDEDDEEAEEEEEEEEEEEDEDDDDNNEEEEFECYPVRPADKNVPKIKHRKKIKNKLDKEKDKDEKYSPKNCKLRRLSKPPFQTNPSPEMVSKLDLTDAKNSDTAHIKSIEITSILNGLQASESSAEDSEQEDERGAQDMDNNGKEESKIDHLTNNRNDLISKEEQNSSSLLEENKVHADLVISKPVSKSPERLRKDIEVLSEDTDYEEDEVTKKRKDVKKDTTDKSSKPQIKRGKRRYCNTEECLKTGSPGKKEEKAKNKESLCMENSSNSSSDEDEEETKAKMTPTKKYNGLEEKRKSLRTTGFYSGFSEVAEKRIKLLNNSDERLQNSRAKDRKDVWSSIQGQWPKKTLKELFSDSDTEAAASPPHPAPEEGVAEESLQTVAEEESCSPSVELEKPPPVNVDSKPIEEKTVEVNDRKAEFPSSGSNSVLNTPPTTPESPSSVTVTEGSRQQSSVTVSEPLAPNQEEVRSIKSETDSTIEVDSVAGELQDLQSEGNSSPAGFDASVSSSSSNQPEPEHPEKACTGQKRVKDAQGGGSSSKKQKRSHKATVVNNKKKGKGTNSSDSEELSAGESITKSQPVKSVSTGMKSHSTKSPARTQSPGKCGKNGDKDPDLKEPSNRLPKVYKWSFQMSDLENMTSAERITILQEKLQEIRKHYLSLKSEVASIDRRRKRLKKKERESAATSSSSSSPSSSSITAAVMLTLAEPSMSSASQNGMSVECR
Protocol: (B-C) show cells expressing HA-ARID4B (C) or HA-ARID4BIC (D) treated or not with ARD150 (10 μM) for 2 h were used for CESTA. […] (D-E) show cells expressing HA-ARID4B (D) or Flag-ARID4A (E) treated or not with RWR-18 (10 μM) for 2 h were used for CESTA. […] Data are means±SEM from three experiments. *P<0.05, **P<0.01, ns, not significant.
Using CETSA (cellular thermal shift assay) to examine whether ARD150 or RWR-18 binds to ARID4B, MCF7 cells treated or not with ARD150 or RWR-18 for 2 h were collected, followed by heating at 46, 49, 52, 55, and 58° C. to denature and precipitate ARID4B protein, cell lysis, removal of cell debris and aggregates by centrifugation, and finally detection of remaining thermostable ARID4B protein by western blot. The ARID4B aggregation temperatures without ARD150 were determined to be 49-52° C., but shifted to 52-55° C. after treatment with ARD150 and even more so with RWR-18 (FIG. 15A-D). To determine whether ARD150 and RWR-18 targets the chromodomain of ARID4B, CESTA was performed using chromodomain deletion mutant (ARID4BAC). HEK-293T cells expressing HA-ARID4B or HA-ARID4BAC were treated or not with ARD150 (10 μM) for 2 h and processed for CESTA.

SMILES	tumor growth (MCF7 xenograft)	percentage of apoptotic cells in tumors (MCF7 xenograft; versus vehicle)	shift of aggregation temperatures of HA-ARID4BAC (chromodomain deletion mutant) (HA-ARID4BAC)
O=C(COc1ccc(OCc2ccccc2)cc1)NCCCN1CCOCC1 [RWR-18]	inhibited tumor growth	increases	–
COc1ccc(C(=O)NCCCN2CCOCC2)cc1OC [ARD150]	–	–	no shift was observed
